The subject of one data set is Arabidopsis thaliana. The experiment in a line: Arabidopsis seedling root architecture screen on vertical agar plates. It counts as in vivo. As to conditions: for lateral root initiation (effect of treatment) / primary root growth (effect of treatment): 6 days of treatment, concentrations tested. The source says:
An initial dose-responded for Arabidopsis seeding growth across multiple orders of magnitude in concentration is developed, and then examined sub-lethal concentrations in greater detail. Plants are germinated and grown vertically on transparent agar plates until the emergence of the first set of true leaves (6-8 days), transferred to fresh plates with or without the compound of interest, and imaged at 0 and 6 days after transfer. Finally, a semi-automated image analysis method is used to score primary root growth and total lateral root number, common phenotypes in plant developmental biology (Lobet, Pagès, and Draye 2011).
Arabidopsis ecotype Col-0 seeds are obtained from the Arabidopsis Biological Resource Center (ABRC). Seeds are surface sterilized by a brief wash in 70% (v/v) ethanol followed by incubation in 30% (v/v) sodium hypochlorite (commercial bleach) for 15 minutes. Seeds are subsequently rinsed 5 times in sterile water, and sown on ½ Murashige and Skoog (MS) agar. Seeds are stratified (2 days, 4° C. in the dark) before transfer to a growth chamber under a 10 h light:14 h dark (22° C.). Following germination, plants are grown until the appearance of the first set of true leaves (˜6 days) prior to transfer to fresh test or control agar. […] The change in root length is determined from the primary root length at transfer subtracted from the primary root length after 6 days of treatment.
(§1) Rhizobacterial biomass for root inoculation experiments is generated by cultivating individual isolates at 30° C. in LB supplemented with 1% (w/v) dextrose, shaking at 200 RPM. Overnight cultures are diluted to an OD600 of 0.1 in fresh media then grown under the same conditions to an OD600 of 0.7. Pellets are centrifuged (2000 r.c.f.) for 10 min at room temperature, then resuspended in 1/10 volume sterile water. Plants are inoculated by momentarily submerging their roots into cell resuspensions, or in sterile water for mock-inoculated controls. Plants are transferred to fresh ½ MS agar plates immediately post-inoculation and grown as before.
(§2) D-limonene, α-pinene, protocatechuate, p-coumarate, [C2C1im][OAc], or [Ch][Lys] are dissolved in molten ½ MS media where indicated. 1.2 M stock solutions of p-coumarate and 1.5 M stock solutions of protocatechuate are prepared in dimethylsulfoxide (DMSO) and ethanol, respectively, before their addition to growth media.
(§3) Plants are lit from the sides and photographed using a Canon 550D camera; images are saved as JPEG files for further analysis. The contrast is adjusted to maximize root visibility, but any adjustments are applied uniformly. Root growth is quantified using ImageJ (Schneider, Rasband, and Eliceiri 2012) with the SmartRoot plugin using default parameters (Lobet, Pages, and Draye 2011).

Another data set relates to A. rhizogenes. The experiment in a line: Microbial growth in liquid culture (A. rhizogenes). The class given is cell-based. As to conditions: for microbial growth with the compound as sole carbon source: M9 minimal media. As for the experimental part:
(§4) Whether inoculation with rhizobacteria alters the effect of the test compounds on plant growth is next tested. Two microbes, A. rhizogenes and Acinetobacter sp.
Whether either [Ch][Lys] or [C2C1im][OAc] has an effect on A. rhizogenes is tested by growing a liquid culture in minimal media (M9, which contains only salts and nitrogen) supplemented with either 0.1 mM [Ch][Lys], 1 mM [C2C1im][OAc], or 1% w/v dextrose as the sole carbon source is tested.
Choline, for instance, can be used as a precursor to the compatible solute glycine betaine in a process dependent on two genes, betA and betB, both of which are present in the A. rhizogenes genome (Levy et al. 2018). Glycine betaine is additionally known to improve the salt tolerance of both plants and microbes (Riou and Le Rudulier 1990; Hayashi et al. 1997). Therefore, whether [Ch][Lys] improves the salt tolerance of A. rhizogenes by growing the microbe in M9 supplemented with 1% w/v dextrose and either 0.1 mM [Ch][Lys], 400 mM NaCl, or both, is tested.
(§5) Microbial strains are maintained in glycerol stocks stored at −80° C. Media used are Lysogeny broth (LB: 10 g/L tryptone, 5 g/L yeast extract, and 5 g/L NaCl) or M9 minimal media (M9: 6.8 g/L Na2HPO4, 3 g/L KH2PO4, 1 g/L NH4Cl, 0.5 g/L NaCl, 0.12 g/L MgSO4) as indicated. Liquid pre-cultures are inoculated with colonies from LB agar plates and grown overnight at 30° C., shaking at 200 RPM. Precultures are back-diluted to an OD600 0.1 into fresh media and grown until OD600 0.6, and then 2 μL per well is used to inoculate 96 well microtiter plates in a total volume of 100 μL of the media and treatment conditions indicated. Optical density is tracked at a wavelength of 600 nm using a Synergy 4 plate reader (BioTek Instruments) kept at 30° C. and shaking on “high” setting.

A further data set deals with Sorghum bicolor. The experiment in a line: Sorghum seedling root growth on vertical agar plates. It counts as in vivo. As to conditions: for effect on seedlings transferred to solid media: similar results as Arabidopsis; for mean crown root growth / mean lateral root growth: 5 mM [Ch][Lys], 8 days.
Excerpt: Arabidopsis is useful as a model system because of its fast generation time, ease of handling, and the availability of relevant genetic tools. The effects of these treatments on a second plant species of economic relevance are compared. Sorghum is selected, since it is both evolutionarily distant from Arabidopsis, but also an agronomically important plant for food, forage, and biomass, and is cultivated over 3,300,000 ha in the United States and 40,000,000 ha globally (Langholtz, Stokes B. J., and Eaton 2016).
Sorghum cultivar BTx623 seeds are a kind gift from Dr. Jeff Dahlberg, UCANR. Seeds are surface sterilized by rinsing 5 times in sterile water, briefly washing in 70% (v/v) ethanol+0.01% (v/v) Triton-X 100 and incubating in bleach+0.01% (v/v) Triton-X 100 on a shaker for 20 minutes. They are then rinsed in sterile water a further 3 times, sown on plates, and grown as above (although without stratification).
as §1, §2, §3

The test system of a further data set is Acinetobacter sp. 01. The experiment in a line: Microbial growth in liquid culture (Acinetobacter sp. 01). The class given is cell-based. As for the experimental part:
as §4, §5

Another data set has as its system Arabidopsis roots. As to conditions: 0.1 mM. How it is done: FIG. 4G. […] Representative fluorescent microscopy images of Arabidopsis roots following propidium iodide staining. I: Control; II: 0.1 mM [Ch][Lys]; III: inoculation with A. rhizogenes; IV: 0.1 mM [Ch][Lys] and A. rhizogenes. The scale bar=200 μm.
Seedlings are inoculated or chemically treated as previously described. After the treatment period roots are gently washed in sterile water and the cell walls are stained for 1 min in […] propidium iodide (PI, Sigma), then briefly rinsed in sterile water. Cellular morphology is determined using a Zeiss LSM 710 confocal microscope with PI fluorescence emission at 550-680 nm and 488 nm excitation.

Data set [1] deals with mammals, fish, and microbes. To be noted: reported (Sun et al. 2014); cited from earlier work.
The mark [2] stands for this setting: 1 mM protocatechuate, inoculated with A. rhizogenes.
The mark [3] stands for this setting: 1 mM protocatechuate, uninoculated.
The mark [4] stands for this setting: 0.1 mM [Ch][Lys], inoculated with A. rhizogenes, 6 days.
Setting [5] is: 0.1 mM [Ch][Lys], uninoculated, 6 days.

“Also recorded” adds a separate entry of the source.

Consider `C=C(C)C1CC=C(C)CC1` [D-limonene], for which the “plants showing complete inhibition of primary root growth” value in the data set on Arabidopsis thaliana (regardless of the concentration tested) was “at least 20%”. Also, in the data set on Arabidopsis thaliana (uninoculated, 6 days), the lateral root growth result was “unaffected”. Besides, the “changes in root architecture / dose-response” value in the data set with Arabidopsis thaliana (uninoculated, between and within plates) is listed as “inconsistent changes in root architecture; also recorded: no dose-response relationship was obvious”.

In the case of `[Cl-].[Na+]` [NaCl, reference compound], the “A. rhizogenes growth rate” value with A. rhizogenes (M9 + 1% w/v dextrose, 400 mM NaCl) is given as “reduces the A. rhizogenes growth rate”.

For the molecule `O=C(O)/C=C/c1ccc(O)cc1` [p-coumarate], in the data set on Arabidopsis thaliana (uninoculated), the “lateral root initiation (effect of treatment)” value is reported as “dose dependent reduction” and the “primary root growth (effect of treatment)” value is recorded as “dose dependent reduction”.

`O=C(O)c1ccc(O)c(O)c1` [protocatechuate]: the “primary root curvature, median skew to the right from that of untreated plants” value in the data set on Arabidopsis thaliana (1 mM) came out at 200. Also, the “mean lateral root number (lateral root initiation)” value with Arabidopsis thaliana (setting [2]) came to 2.214; with Arabidopsis thaliana (setting [3]), 7.989. Also, the figures for the “mean primary root growth” value in the data set with Arabidopsis thaliana (setting [2]) and in the data set with Arabidopsis thaliana (setting [3]) were 0.631 cm and 2.293 cm, respectively. In addition, the lateral root initiation entry with Arabidopsis thaliana (1 mM, uninoculated, 6 days) is reported as “increase lateral root initiation”. Further, the lateral root growth result in the data set with Arabidopsis thaliana (uninoculated, 6 days) is “enhanced”. Further, the “primary root growth (effect of treatment)” value in the data set on Arabidopsis thaliana (uninoculated) is “reduce primary root growth at all concentrations tested”.

As for cholinium lysinate [[Ch][Lys]], the “effect on seedlings transferred to solid media” value was “reduced root growth” in the data set with Arabidopsis thaliana (0.1 mM); “complete chlorosis and plant death” with Arabidopsis thaliana (5 mM); “reduced root growth” in the data set on Sorghum bicolor (0.1 mM); “complete chlorosis and plant death” with Sorghum bicolor (5 mM). Moreover, the figures for the “mean lateral root number (lateral root initiation)” value in the data set with Arabidopsis thaliana (setting [4]) and in the data set with Arabidopsis thaliana (setting [5]) were 4.889 and 7.069, respectively. Also, the “mean primary root growth” value with Arabidopsis thaliana (setting [4]) stood at 2.241 cm; with Arabidopsis thaliana (0.1 mM [Ch][Lys], inoculated with Pool B), 2.072 cm; in the data set with Arabidopsis thaliana (setting [5]), 0.858 cm. In addition, the “root growth versus uninoculated, [Ch][Lys]-treated controls” value in the data set with Arabidopsis thaliana (0.1 mM [Ch][Lys], inoculated with Pool A) is on record as “do not differ significantly”. For the same molecule, in the data set with Arabidopsis thaliana (0.1 mM, uninoculated), the primary root growth result was “significantly inhibit”. Besides, the lateral root initiation entry with Arabidopsis thaliana (0.1 mM, uninoculated, 6 days) is given as “increase lateral root initiation”. Besides, the “concentration that reduces the root growth” value in the data set on Arabidopsis thaliana (A. thaliana) is given as “At least 0.1 mM”; with Sorghum bicolor (S. bicolor), “At least 5 mM”. For the same molecule, the “concentration sufficient to completely inhibit primary root growth” value with Arabidopsis thaliana (Arabidopsis) was found to be 0.1 mM. Moreover, the “root growth, effect of inoculation” value with Arabidopsis thaliana ([Ch][Lys] treatment, inoculated with Acinetobacter sp. 01) is on record as “no significant effect”. Besides, the “application rate equivalent to the concentration that inhibits primary root growth” value in the data set on Arabidopsis thaliana (equates to 0.1 mM) is 104 g/ha2. In addition, the “estimated appropriate application rate as herbicide” value in the data set with Arabidopsis thaliana (estimate) is reported as 100-500 g/ha. Further, the “primary root growth (effect of treatment)” value in the data set on Arabidopsis thaliana (uninoculated) is listed as “reduce primary root growth at all concentrations tested”. For the same molecule, the “mean crown root growth” value is reported as 5.028 cm with Sorghum bicolor (inoculated with A. rhizogenes) and 3.267 cm with Sorghum bicolor (uninoculated). In addition, the “mean lateral root growth” value in the data set on Sorghum bicolor (inoculated with A. rhizogenes) stood at 1.051 cm; with Sorghum bicolor (uninoculated) it was 0.464 cm. Also, the “branching lateral roots and crown root growth” value with Sorghum bicolor (5 mM, over 8 days) is “almost completely inhibit”. Moreover, the “concentration tolerated by the microbe” value in the data set with A. rhizogenes (A. rhizogenes) and with Acinetobacter sp. 01 (Acinetobacter sp. 01) was 10 mM in each case. Further, the “A. rhizogenes growth rate under NaCl” value in the data set on A. rhizogenes (M9 + 1% w/v dextrose, 400 mM NaCl plus 0.1 mM [Ch][Lys]) is given as “partially rescued”. For the same molecule, the “microbial growth with the compound as sole carbon source” value with A. rhizogenes (0.1 mM [Ch][Lys]) is given as “Neither IL allows microbial growth”. For the same molecule, the “root cell morphology phenotype caused by [Ch][Lys]” value with Arabidopsis roots (A. rhizogenes treated roots) is recorded as “abolished”. Also, the root cell morphology entry with Arabidopsis roots (uninoculated) was “irregular expansion of epidermal cells of the root apical meristem (RAM) and stimulates formation of ectopic root hairs”. Further, in data set [1], the “toxicity to mammals, fish, and microbes” value is listed as “low toxicity”.

Take `CC1=CCC2CC1C2(C)C` (stereo not drawn) [α-pinene]: in the data set with Arabidopsis thaliana (uninoculated), the “lateral root initiation (effect of treatment)” value is reported as “dose dependent reduction” and the “primary root growth (effect of treatment)” value is recorded as “dose dependent reduction”.

As for `CCn1cc[n+](C)c1` [[C2C1im][OAc], 1-ethyl-3-methylimidazolium acetate], the “lateral root initiation, effect of inoculation” value in the data set on Arabidopsis thaliana (1 mM [C2C1im][OAc], inoculated with A. rhizogenes) is “no effect”. For the same molecule, the “mean primary root growth” value was determined as 2.912 cm in the data set with Arabidopsis thaliana (1 mM [C2C1im][OAc], inoculated with A. rhizogenes, 6 days); 4.011 cm with Arabidopsis thaliana (1 mM [C2C1im][OAc], inoculated with Acinetobacter sp. 01, 6 days); 1.904 cm in the data set with Arabidopsis thaliana (1 mM [C2C1im][OAc], uninoculated, 6 days). In addition, in the data set on Arabidopsis thaliana (1 mM, uninoculated), the root growth entry is listed as “overall reduction in root growth”. Moreover, in the data set on Arabidopsis thaliana (uninoculated), the “lateral root initiation (effect of treatment)” value is “dose dependent reduction”. Further, in the data set with Arabidopsis thaliana (uninoculated), the “primary root growth (effect of treatment)” value is “dose dependent reduction”. Also, the “effect on growth of the microbe” value in the data set with A. rhizogenes (1 mM) and with Acinetobacter sp. 01 (1 mM) was “does not alter the growth” throughout. The “microbial growth with the compound as sole carbon source” value in the data set on A. rhizogenes (1 mM [C2C1im][OAc]) is “Neither IL allows microbial growth”.

Values taken from US11160277B2, “Use of cholinium lysinate as an herbicide” (priority 2019, dated 2021).
